Key:
TNFα = TNFα ELISA in CEM cells with IL-1 induction; format: cell-based; settings: Homo sapiens, CCRF-CEM; CEM cells (T lymphoblasts) with 1 μg/mL IL-1 induction, 48 hours; read-out: ELISA EC50, TNFa
Procedure: (§1) Cells were treated with vehicle control (0.5% DMSO) or compounds at the indicated concentration for 48 hours, and specific proteins in conditioned medium were quantified using commercially available ELISA kits (R&D Systems) according to the manufacturer’s recommendations. VEGF was quantified in HeLa cells under hypoxia (1% oxygen); Tumor necrosis factor alpha (TNFα) was quantified in CEM cells stimulated with 1 μg/mL interleukin-1 beta (Sigma); erythropoietin (EPO) was quantified in HepB3 cells under hypoxic conditions (1% oxygen); and granulocyte colony-stimulating factor (G-CSF), basic fibroblast growth factor (FGF-2) and insulin-like growth factor 1 (IGF-1) were quantified without induction in HT1080 cells, HeLa cells and HepG2 cells, respectively.
(§2) Several target proteins were chosen as selectivity counter-screens, including TNF-alpha, FGF-2, G-CSF, IGF-1, and EPO. Similar to that of VEGF, the expression levels of these proteins are post-transcriptionally regulated, either through a 5’-UTR IRES, 3’-UTR AU-rich elements (AREs), or both.

G-CSF = G-CSF ELISA in HT1080 cells under normoxia; format: cell-based; settings: Homo sapiens, HT-1080; HT1080 cells under normoxia (21% oxygen), 48 hours
Procedure: as §1, §2

[1] = Cytotoxicity, CellTiter-Glo, foreskin fibroblasts; format: cell-based; settings: human, primary foreskin fibroblasts, read-out: Cytotoxicity CC50, Foreskin Fibroblast
Procedure: The cytotoxicity of compounds was determined in peripheral blood mononuclear cells (PBMCs) and primary human foreskin fibroblasts, both purchased frozen from AllCells, Inc, CA. Cells were incubated with test compound at various concentrations in triplicate for a period of 3 days in 96-well plates. The cytotoxicity or inhibition of cell proliferation was determined using a standard CellTiter-Glo® Luminescent Cell Viability Assay (Promega, Madison, WI) that measures total cellular adenosine triphosphate (ATP) concentration as a function of cell viability. In addition, cytotoxicity assays were also performed in HeLa cells in parallel with VEGF ELISA to ensure that the inhibition of VEGF production in HeLa cells was not due to cytotoxicity.

mVEGF = assay: HT1080 xenograft pharmacodynamic model, intratumor mVEGF; format: in vivo, mouse; settings: 200 mg/kg, twice per day for 7 days, oral, mean +/- SD, n = 10
Procedure: (§3) Log phase growing tumor cells (5–10 x 10^6 cells/mouse, depending on the cell line) were implanted subcutaneously in athymic nude mice. When the average tumor size reached the indicated size, mice were randomly divided into groups and administered vehicle (5% DMSO/ 95% PEG-300) or test compounds by oral gavage. Tumor volumes were measured twice per week using digital calipers and body weights once per week. Tumor volume was determined according to the formula: L x (W)^2/2, where L is the longest dimension and W is the shortest dimension.
(§4) At the end of experiments, the tumors were excised from mice and homogenized on ice using a Powergen homogenizer fitted with Omni-Tip disposable/reusable probes (both from Fisher Scientific) in Tris-HCl buffer containing a cocktail of proteinase inhibitors. Intra-tumor human VEGF levels, as well as levels of other growth factors or proteins, were subsequently measured using commercially available ELISA kits (R&D Systems). Protein concentrations of the homogenates were determined using the Bradford protein assay (Bio-Rad) and intratumor growth factor levels were normalized to the total protein concentration.
(§5) Among the VEGF UTR-selective compounds identified, PTC-858 is a potent hit with adequate pharmaceutical properties (data not shown). […]

hSurvivin = assay: HT1080 xenograft pharmacodynamic model, intratumor hSurvivin; format: in vivo, human; settings: 200 mg/kg, twice per day for 7 days, oral, mean +/- SD, n = 10
Procedure: as §3, §4, §5

[2] = biological target: T1, phosphodiesterase 5 (PDE5) (Homo sapiens, UniProt O76074); assay: PDE5 in vitro enzyme assay (fluorescence polarization); format: biochemical; settings: tadalafil positive control
T1 construct: purchased CalBiochem 524715
Procedure: PDE5 activity was measured with a PDE5 assay kit (cat#: R8039, Molecular Devices) according to manufacturer’s instructions. PDE5 enzyme was purchased from CalBiochem (cat#: 524715). Tadalafil (Cialis® was used as a positive control. Assays were performed in 96-well plates in duplicate, the fluorescence polarization was determined on a ViewLux microplate reader (Perkin Elmer) using the instrument settings recommended by the manufacturer. (DOC) Click here for additional data file.
PDE5 activity was quantified usinga PDE5 assay kit (cat#: R8039, Molecular Devices) according to manufacturer’s instructions. PDE5 enzyme was purchased from CalBiochem (cat#: 524715). The positive control, tadalafil (Cialis®), was synthesized in house. Assays were performed in 96-well plates in duplicate and fluorescence polarization was determined on a ViewLux microplate reader (Perkin Elmer) using the instrument settings recommended by the manufacturer.

[3] = Body weight in the xenograft study; format: in vivo, mouse; settings: HT1080 xenograft study, 10 and 50 mg/kg
Procedure: as §3
Body weight was measured at the indicated time for each mouse until the group average tumor size reached […] and the whole group were then took down. (DOC) Click here for additional data file.
Body weight was measured at the indicated time for each mouse until the group average tumor size reached […] and the whole group were then took down. Data in this graph represents the average body weight (g) ± SD, n = 10.

[4] = Microsome metabolism - rat; format: in vitro ADME
Procedure: (§6) Pharmacological characterization of PTC-510. Pharmacological assays were performed to characterize PTC-510, including metabolic stability in human, primate mouse and rat liver microsomes; absorption in Caco-2 cells; in vitro effect on hERG ion channel; pharmacokinetics; and acute toxicity in the rat.

Cyp2C19 = Cyp2C19 (Homo sapiens, UniProt P33261); assay: p450 inhibition Cyp2C19; format: in vitro ADME
Cyp1A2 = Cyp1A2 (Homo sapiens, UniProt P05177); assay: p450 inhibition Cyp1A2; format: in vitro ADME
in vitro = in vitro ADME; settings: human, Caco-2
Procedure: as §6

[5] = Acute Toxicity Dose (ATD); format: in vivo
Procedure: as §6

[6] = Pharmacokinetics in the rat; format: in vivo; set-up: Dose normalized AUC in the rat: unit not given here
Procedure: as §6

Sequence of Cyp2C19 (P33261 whole entry): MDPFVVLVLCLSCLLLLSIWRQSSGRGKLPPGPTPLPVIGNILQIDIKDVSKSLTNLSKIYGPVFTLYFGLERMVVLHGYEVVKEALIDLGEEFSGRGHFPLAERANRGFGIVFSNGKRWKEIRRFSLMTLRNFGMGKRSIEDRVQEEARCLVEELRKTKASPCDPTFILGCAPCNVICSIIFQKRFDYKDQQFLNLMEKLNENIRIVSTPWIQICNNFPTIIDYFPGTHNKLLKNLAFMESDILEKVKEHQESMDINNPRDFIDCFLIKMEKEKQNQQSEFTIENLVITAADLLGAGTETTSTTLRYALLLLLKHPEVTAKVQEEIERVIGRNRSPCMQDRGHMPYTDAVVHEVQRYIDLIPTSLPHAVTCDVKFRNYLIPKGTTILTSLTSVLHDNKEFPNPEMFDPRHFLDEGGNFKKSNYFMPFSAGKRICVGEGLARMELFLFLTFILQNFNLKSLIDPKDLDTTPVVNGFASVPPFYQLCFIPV
Sequence of Cyp1A2 (P05177 whole entry): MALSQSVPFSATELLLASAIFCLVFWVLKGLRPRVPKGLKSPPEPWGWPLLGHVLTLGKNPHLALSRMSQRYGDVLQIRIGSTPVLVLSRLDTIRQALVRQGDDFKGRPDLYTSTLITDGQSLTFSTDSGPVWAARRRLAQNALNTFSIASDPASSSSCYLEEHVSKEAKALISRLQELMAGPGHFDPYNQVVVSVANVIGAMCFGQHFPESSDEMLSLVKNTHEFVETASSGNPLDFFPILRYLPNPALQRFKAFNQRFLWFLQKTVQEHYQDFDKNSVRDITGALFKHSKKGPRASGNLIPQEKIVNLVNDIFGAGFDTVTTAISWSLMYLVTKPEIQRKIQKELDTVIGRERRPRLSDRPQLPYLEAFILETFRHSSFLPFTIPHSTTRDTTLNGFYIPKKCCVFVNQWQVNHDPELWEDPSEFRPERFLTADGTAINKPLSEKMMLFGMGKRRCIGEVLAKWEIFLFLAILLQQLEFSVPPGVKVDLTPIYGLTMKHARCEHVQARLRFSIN

Row | Structure (SMILES) | EC50 (TNFα) [µM] | EC50 (G-CSF) [µM] | CC50 at 72 hours [1] [µM] | intratumor mVEGF (mVEGF) | intratumor hSurvivin (hSurvivin) | inhibition of PDE5 activity [2] | overt toxicity (body weight loss) [3] | Microsome metabolism - rat, % loss @ 1 h [4] [%] | IC50 (Cyp2C19) [µM] | IC50 (Cyp1A2) [µM] | Papp (in vitro) [×10⁻⁶ cm/s] | Acute Toxicity Dose (ATD) in mouse [5] | Dose normalized AUC in the rat [6] | bioavailability ([6]; in vivo, po, DMSO/PEG) [%]
1 | Brc1ccc2[nH]c3c(c2c1)CCCC3n1cccc1 (centres unmarked) [PTC-858, 6-bromo-1-(1H-pyrrol-1-yl)-2,3,4,9-tetrahydro-1H-carbazole] | > 30 | > 30 | > 30 | 12.6 ± 5.9 pg/mg total tumor proteins | 1815.43 ± 321.9 pg/mg total tumor proteins |  |  |  |  |  |  |  |  | 
2 | COc1ccc(C2c3[nH]c4ccc(Br)cc4c3CC3C(=O)N(C4CCCCC4)C(=S)N32)cc1.O=C(O)C(F)(F)F (centres unmarked) [PTC-510, 9-bromo-2-cyclohexyl-5-(4-methoxyphenyl)-3-thioxo-2,3,5,6,11,11a-hexahydro-1H-imidazo[1’,5’:1,6]pyrido[3,4-b]indol-1-one trifluoroacetate] |  |  |  |  |  | did not inhibit PDE5 activity | No overt toxicity | 0 | > 5 | > 5 | 1 | No overt toxicity at 1000 mg/kg | 2.60 | 50

Source: PMC5161367, “Discovery of Novel Small Molecule Inhibitors of VEGF Expression in Tumor Cells Using a Cell-Based High Throughput Screening Platform” (PLoS ONE, 2016)
